Measured values taken from ChEMBL document CHEMBL3400103, “Synthesis and biological evaluation of novel HIV-1 protease inhibitors using tertiary amine as P2-ligands” (Bioorg Med Chem Lett, 2015).

biological target: Protease (Human immunodeficiency virus 1, UniProt Q9YQ12); assay: Inhibition of HIV1 protease expressed in Escherichia coli incubated for 20 to 30 mins at room temperature using (Arg-Glu(EDANS)-Ser-Gln-Asn-Tyr-Pro-Ile-Val-Gln-Lys(DABCYL)-Arg) substrate by FRET method
Sequence (Q9YQ12 whole entry): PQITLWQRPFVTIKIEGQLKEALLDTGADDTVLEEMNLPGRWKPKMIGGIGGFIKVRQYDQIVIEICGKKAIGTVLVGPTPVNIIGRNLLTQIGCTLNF

| SMILES | IC50 [nM] |
| --- | --- |
| COc1ccc(N(CC(=O)N[C@@H](Cc2ccccc2)[C@@H](O)CN(CC(C)C)S(=O)(=O)c2ccc([N+](=O)[O-])cc2)CC(=O)N(C)C)cc1 | > 20000 |
| COc1ccc(N(CC(=O)N[C@@H](Cc2ccccc2)[C@@H](O)CN(CC(C)C)S(=O)(=O)c2ccc([N+](=O)[O-])cc2)CC(=O)N2CCOCC2)cc1 | 19200 |
| Cc1cccc(C)c1N(CC(=O)N[C@@H](Cc1ccccc1)[C@@H](O)CN(CC(C)C)S(=O)(=O)c1ccc([N+](=O)[O-])cc1)CC(=O)N1CCOCC1 | 5870 |
| Cc1cccc(C)c1N(CC(=O)N[C@@H](Cc1ccccc1)[C@@H](O)CN(CC(C)C)S(=O)(=O)c1ccc([N+](=O)[O-])cc1)CC(=O)N(C)C | 5880 |
| Cc1cccc(C)c1N(CC(=O)N[C@@H](Cc1ccccc1)[C@@H](O)CN(CC(C)C)S(=O)(=O)c1ccc(N)cc1)CC(=O)N1CCOCC1 | 2590 |
| Cc1c(O)cccc1N(CC(=O)N[C@@H](Cc1ccccc1)[C@@H](O)CN(CC(C)C)S(=O)(=O)c1ccc([N+](=O)[O-])cc1)CC(=O)N(C)C | 7410 |
| COc1ccc(N(CC(=O)N[C@@H](Cc2ccccc2)[C@@H](O)CN(CC(C)C)S(=O)(=O)c2ccc(CO)cc2)CC(=O)N(C)C)cc1 | 5340 |
| Cc1cccc(C)c1N(CC(=O)N[C@@H](Cc1ccccc1)[C@@H](O)CN(CC(C)C)S(=O)(=O)c1ccc(CO)cc1)CC(=O)N1CCOCC1 | 8940 |
| Cc1c(O)cccc1N(CC(=O)N[C@@H](Cc1ccccc1)[C@@H](O)CN(CC(C)C)S(=O)(=O)c1ccc(CO)cc1)CC(=O)N(C)C | > 20000 |
| COc1ccc(N(CC(=O)N[C@@H](Cc2ccccc2)[C@@H](O)CN(CC(C)C)S(=O)(=O)c2ccc(N)cc2)CC(=O)N2CCOCC2)cc1 | 6810 |
| COc1ccc(N(CC(=O)N[C@@H](Cc2ccccc2)[C@@H](O)CN(CC(C)C)S(=O)(=O)c2ccc(OC)cc2)CC(=O)N(C)C)cc1 | > 20000 |
| COc1ccc(S(=O)(=O)N(CC(C)C)C[C@@H](O)[C@H](Cc2ccccc2)NC(=O)CN(CC(=O)N2CCOCC2)c2cccc(O)c2C)cc1 | 1380 |
| COc1ccc(S(=O)(=O)N(CC(C)C)C[C@H](O)[C@H](Cc2ccccc2)NC(=O)CN(CC(=O)N2CCOCC2)c2c(C)cccc2C)cc1 | 8650 |
| COc1ccc(S(=O)(=O)N(CC(C)C)C[C@H](O)[C@H](Cc2ccccc2)NC(=O)CN(CC(=O)N(C)C)c2cccc(O)c2C)cc1 | 5780 |
| COc1ccc(N(CC(=O)N[C@@H](Cc2ccccc2)[C@@H](O)CN(CC(C)C)S(=O)(=O)c2ccc(OC)cc2)CC(=O)N2CCOCC2)cc1 | > 20000 |
| COc1ccc(N(CC(=O)N[C@@H](Cc2ccccc2)[C@@H](O)CN(CC(C)C)S(=O)(=O)c2ccc(CO)cc2)CC(=O)N2CCOCC2)cc1 | > 20000 |
| COc1ccc(N(CC(=O)N[C@@H](Cc2ccccc2)[C@H](O)CN(CC(C)C)S(=O)(=O)c2ccc(N)cc2)CC(=O)N2CCOCC2)cc1 | 1360 |
| Cc1c(O)cccc1N(CC(=O)N[C@@H](Cc1ccccc1)[C@@H](O)CN(CC(C)C)S(=O)(=O)c1ccc(N)cc1)CC(=O)N1CCOCC1 | 16100 |
| Cc1c(O)cccc1N(CC(=O)N[C@@H](Cc1ccccc1)[C@@H](O)CN(CC(C)C)S(=O)(=O)c1ccc(CO)cc1)CC(=O)N1CCOCC1 | 6120 |
| Cc1c(O)cccc1N(CC(=O)N[C@@H](Cc1ccccc1)[C@@H](O)CN(CC(C)C)S(=O)(=O)c1ccc([N+](=O)[O-])cc1)CC(=O)N1CCOCC1 | > 20000 |
| Cc1cccc(C)c1N(CC(=O)N[C@@H](Cc1ccccc1)[C@@H](O)CN(CC(C)C)S(=O)(=O)c1ccc(CO)cc1)CC(=O)N(C)C | 17300 |
| COc1ccc(S(=O)(=O)N(CC(C)C)C[C@H](O)[C@H](Cc2ccccc2)NC(=O)CN(CC(=O)N2CCOCC2)c2cccc(O)c2C)cc1 | > 20000 |
| COc1ccc(S(=O)(=O)N(CC(C)C)C[C@H](O)[C@H](Cc2ccccc2)NC(=O)CN(CC(=O)N(C)C)c2c(C)cccc2C)cc1 | > 20000 |
| Cc1c(O)cccc1N(CC(=O)N[C@@H](Cc1ccccc1)[C@H](O)CN(CC(C)C)S(=O)(=O)c1ccc([N+](=O)[O-])cc1)CC(=O)N1CCOCC1 | 6670 |
| Cc1c(O)cccc1N(CC(=O)N[C@@H](Cc1ccccc1)[C@@H](O)CN(CC(C)C)S(=O)(=O)c1ccc(N)cc1)CC(=O)N(C)C | 5920 |
| COc1ccc(N(CC(=O)N[C@@H](Cc2ccccc2)[C@@H](O)CN(CC(C)C)S(=O)(=O)c2ccc(N)cc2)CC(=O)N(C)C)cc1 | 6960 |
| Cc1c(O)cccc1N(CC(=O)N[C@@H](Cc1ccccc1)[C@H](O)CN(CC(C)C)S(=O)(=O)c1ccc(N)cc1)CC(=O)N1CCOCC1 | 2730 |

Further compounds by falling IC50, results first:

| IC50 [nM] | SMILES |
| --- | --- |
| 1360 | Cc1cccc(C)c1N(CC(=O)N[C@@H](Cc1ccccc1)[C@H](O)CN(CC(C)C)S(=O)(=O)c1ccc(N)cc1)CC(=O)N(C)C |
| 1210 | Cc1c(O)cccc1N(CC(=O)N[C@@H](Cc1ccccc1)[C@H](O)CN(CC(C)C)S(=O)(=O)c1ccc(CO)cc1)CC(=O)N1CCOCC1 |
| 1020 | COc1ccc(N(CC(=O)N[C@@H](Cc2ccccc2)[C@H](O)CN(CC(C)C)S(=O)(=O)c2ccc([N+](=O)[O-])cc2)CC(=O)N2CCOCC2)cc1 |
| 890 | COc1ccc(N(CC(=O)N[C@@H](Cc2ccccc2)[C@H](O)CN(CC(C)C)S(=O)(=O)c2ccc(CO)cc2)CC(=O)N2CCOCC2)cc1 |
| 610 | Cc1c(O)cccc1N(CC(=O)N[C@@H](Cc1ccccc1)[C@H](O)CN(CC(C)C)S(=O)(=O)c1ccc([N+](=O)[O-])cc1)CC(=O)N(C)C |
| 590 | Cc1c(O)cccc1N(CC(=O)N[C@@H](Cc1ccccc1)[C@H](O)CN(CC(C)C)S(=O)(=O)c1ccc(N)cc1)CC(=O)N(C)C |
| 540 | COc1ccc(S(=O)(=O)N(CC(C)C)C[C@@H](O)[C@H](Cc2ccccc2)NC(=O)CN(CC(=O)N(C)C)c2cccc(O)c2C)cc1 |
| 490 | Cc1cccc(C)c1N(CC(=O)N[C@@H](Cc1ccccc1)[C@@H](O)CN(CC(C)C)S(=O)(=O)c1ccc(N)cc1)CC(=O)N(C)C |
| 370 | COc1ccc(N(CC(=O)N[C@@H](Cc2ccccc2)[C@H](O)CN(CC(C)C)S(=O)(=O)c2ccc(CO)cc2)CC(=O)N(C)C)cc1 |
| 290 | Cc1cccc(C)c1N(CC(=O)N[C@@H](Cc1ccccc1)[C@H](O)CN(CC(C)C)S(=O)(=O)c1ccc([N+](=O)[O-])cc1)CC(=O)N(C)C |
| 290 | COc1ccc(N(CC(=O)N[C@@H](Cc2ccccc2)[C@H](O)CN(CC(C)C)S(=O)(=O)c2ccc(OC)cc2)CC(=O)N2CCOCC2)cc1 |
| 290 | Cc1cccc(C)c1N(CC(=O)N[C@@H](Cc1ccccc1)[C@H](O)CN(CC(C)C)S(=O)(=O)c1ccc(CO)cc1)CC(=O)N(C)C |
| 220 | COc1ccc(N(CC(=O)N[C@@H](Cc2ccccc2)[C@H](O)CN(CC(C)C)S(=O)(=O)c2ccc(OC)cc2)CC(=O)N(C)C)cc1 |
| 210 | COc1ccc(N(CC(=O)N[C@@H](Cc2ccccc2)[C@H](O)CN(CC(C)C)S(=O)(=O)c2ccc([N+](=O)[O-])cc2)CC(=O)N(C)C)cc1 |
| 180 | COc1ccc(S(=O)(=O)N(CC(C)C)C[C@@H](O)[C@H](Cc2ccccc2)NC(=O)CN(CC(=O)N(C)C)c2c(C)cccc2C)cc1 |
| 150 | Cc1c(O)cccc1N(CC(=O)N[C@@H](Cc1ccccc1)[C@H](O)CN(CC(C)C)S(=O)(=O)c1ccc(CO)cc1)CC(=O)N(C)C |
| 140 | COc1ccc(N(CC(=O)N[C@@H](Cc2ccccc2)[C@H](O)CN(CC(C)C)S(=O)(=O)c2ccc(N)cc2)CC(=O)N(C)C)cc1 |
| 73 | Cc1cccc(C)c1N(CC(=O)N[C@@H](Cc1ccccc1)[C@H](O)CN(CC(C)C)S(=O)(=O)c1ccc([N+](=O)[O-])cc1)CC(=O)N1CCOCC1 |
| 73 | Cc1cccc(C)c1N(CC(=O)N[C@@H](Cc1ccccc1)[C@H](O)CN(CC(C)C)S(=O)(=O)c1ccc(CO)cc1)CC(=O)N1CCOCC1 |
| 64 | Cc1cccc(C)c1N(CC(=O)N[C@@H](Cc1ccccc1)[C@H](O)CN(CC(C)C)S(=O)(=O)c1ccc(N)cc1)CC(=O)N1CCOCC1 |
| 15 | COc1ccc(S(=O)(=O)N(CC(C)C)C[C@@H](O)[C@H](Cc2ccccc2)NC(=O)CN(CC(=O)N2CCOCC2)c2c(C)cccc2C)cc1 |
